Data published in PMC12455397 (Angewandte Chemie (International Ed. in English), 2025).
Where a name gives a salt, the structure may show the parent alone. Read-outs that look alike come from different tables or passages of the source.

How the values were obtained:
[1] = test system: Nrf2 KO THP1 cells differentiated into macrophages; experiment: RNA sequencing transcriptome analysis, Nrf2 KO THP-1 macrophages; type: cell-based; conditions: 12 h, CDDO-Me 0.1 µM, DMF, 24, 28 10 µM, KI-696 1 µM
[2] = test system: differentiated THP1 macrophages (WT); conditions: for number of upregulated genes not shared by the other groups: DMF 10 µM
Keap1 Kelch domain = Keap1 Kelch domain (Homo sapiens, UniProt Q14145); experiment: Surface plasmon resonance (SPR), immobilized Keap1 Kelch
Sequence of Keap1 Kelch domain (Q14145 321-609 limits assumed): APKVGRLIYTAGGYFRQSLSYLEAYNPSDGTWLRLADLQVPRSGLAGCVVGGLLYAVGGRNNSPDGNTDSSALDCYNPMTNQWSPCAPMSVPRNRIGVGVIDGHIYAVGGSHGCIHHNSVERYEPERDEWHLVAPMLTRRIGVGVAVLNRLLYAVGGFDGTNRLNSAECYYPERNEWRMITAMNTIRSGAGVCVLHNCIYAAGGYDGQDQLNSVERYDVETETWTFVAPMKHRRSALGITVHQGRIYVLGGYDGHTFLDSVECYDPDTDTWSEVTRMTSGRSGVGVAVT
Method: Surface Plasmon Resonance
SPR measurements were performed at 25 °C using a Pioneer FE FE instrument (Sartorius), as described
previosuly.[1, 3-4] The Keap1 Kelch domain was covalently immobilized on the biosensor chip surface by
amine coupling to a level of 2150 RU, using a 10 mM NaOAc pH 5 immobilization buffer. The 1×HBSTET
buffer (10 mM Hepes, 150 mM NaCl, 0.005% Tween20, 3 mM EDTA, 1 mM TCEP, pH = 7.4)
supplemented with 4% DMSO was used as running buffer for the experiments. Microcalibration was
performed for all SPR experiments to adjust for DMSO bulk effects (low limit of 3% and a high limit of
5%). The compound was injected in a concentration series of twofold serial dilutions (67.5–1000 µM)
using standard injections at a 30 μL/min flow rate. The data were analyzed using Qdat Data Analysis
Tool version 2.6.3.0 (Sartorius). The sensorgrams were corrected for buffer effects and unspecific
binding to the chip matrix by subtraction of blank and reference surfaces (a blank flow cell channel
activated by the injection of EDC/NHS and inactivated by the injection of ethanolamine). The
dissociation constant (Kd) was estimated by plotting MW normalized response levels (RUnorm) at equilibrium (Req) against the injected concentration and curve-fitted to a Langmuir (1:1) binding

human Keap1 Kelch = human Keap1 Kelch (Homo sapiens, UniProt Q14145); experiment: Fluorescence polarization (FP) competition assay with Cy5-Nrf2 peptide probe
Sequence of human Keap1 Kelch (Q14145 321-609): as the sequence (Q14145 321-609 limits assumed) above
Method: Fluorescence Polarization Assay
(3 nM) and human Keap1 Kelch at 14 nM in the 1×HBSTET assay buffer, as previously.[1, 3-5] In short, the assay was performed in black flat-bottom 384-well plates (Corning Life Sciences, NY) allowing an assay volume of 30 μL/well. Proper mixing and elimination of air bubbles was ascertained by spinning down the plates and incubation for 10–15 minutes at RT before measuring FP levels on a Safire2 plate-reader (Tecan, Männedorf, Switzerland). The Ki values of the compounds were determined by dose-response experiments (12-points, 4% DMSO in all wells), where FP values were fitted to the equation Y = Bottom + (Top - Bottom)/[1 + (10HillSlope*(LogIC50-X))]; X representing the logarithmic value of compound concentration. The resulting IC50 value, together with the Kd value (the dissociation constant between probe and Keap1 Kelch, determined in a prior experiment) and Keap1 Kelch concentrations, was used to calculate the theoretical competitive inhibition constant, the Ki value.[18]

THP1 cells = type: cell-based; conditions: THP-1 WT, 100 µM, 48 h; stated as contrast to 24/28, which did not reduce viability
Method: THP1 cells were exposed to the compounds for 48 hours at 10 and 100 μM. Viability was quantified using
propidium iodide exclusion through flow cytometry. PI-positive cells (dead or necrotic cells) were quantified
through red fluorescence on a BD C6 Accuri flow cytometer using a 488 nm excitation wavelength and an
emission filter of 585 nm ± 40 nm (BD Biosciences). 50,000 events were collected (n = 3 technical replicates
per condition). The experiment was repeated twice. Data are presented as mean ± SEM (n = 4‒10).

[3] = WT, 12 h, CDDO-Me 0.1 µM, SFN, DMF, 24, 28 10 µM, KI-696 1 µM
[4] = WT, 12 h, CDDO-Me 0.1 µM, SFN, DMF, 24, 28 10 µM, KI-696 1 µM, NS = not significant

| Structure (SMILES) | AKR1B10 FC ([2]; Table S3, THP-1, 12 h) | CASP1 FC ([2]; Table S3, THP-1, 12 h) | COL1A1 FC ([2]; Table S3, THP-1, 12 h) | COL4A1 FC ([2]; Table S3, THP-1, 12 h) | COL4A2 FC ([2]; Table S3, THP-1, 12 h) | GPX1 FC ([2]; Table S3, THP-1, 12 h) | GPX4 FC ([2]; Table S3, THP-1, 12 h) | IFNAR1 FC ([2]; Table S3, THP-1, 12 h) | IFNAR2 FC ([2]; Table S3, THP-1, 12 h) | IFNGR1 FC ([2]; Table S3, THP-1, 12 h) | IFNGR2 FC ([2]; Table S3, THP-1, 12 h) | IL1B FC ([2]; Table S3, THP-1, 12 h) | IRF3 FC ([2]; Table S3, THP-1, 12 h) | LAMB1 FC ([2]; Table S3, THP-1, 12 h) | LAMB4 FC ([2]; Table S3, THP-1, 12 h) | MMP8 FC ([2]; Table S3, THP-1, 12 h) | MMP9 FC ([2]; Table S3, THP-1, 12 h) | MMP12 FC ([2]; Table S3, THP-1, 12 h) | NLRP3 FC ([2]; Table S3, THP-1, 12 h) | NOD2 FC ([2]; Table S3, THP-1, 12 h) | also measured |
| --- | --- | --- | --- | --- | --- | --- | --- | --- | --- | --- | --- | --- | --- | --- | --- | --- | --- | --- | --- | --- | --- |
| COC(=O)[C@]12CCC(C)(C)C[C@H]1[C@H]1C(=O)C=C3[C@@]4(C)C=C(C#N)C(=O)C(C)(C)[C@@H]4CC[C@@]3(C)[C@]1(C)CC2 [CDDO-Me, bardoxolone methyl] | 61,69 fold | 1,31 fold | 3,46 fold | 0,30 fold | 0,49 fold | 0,44 fold | 0,91 fold | 0,82 fold | 0,52 fold | 0,81 fold | 0,41 fold | 0,13 fold | 0,95 fold | 3,83 fold | 5,61 fold | 0,21 fold | 0,51 fold | 0,25 fold | 0,43 fold | 0,78 fold | number of up- or downregulated genes in Nrf2 KO cells [1]: 2149 genes; NOXA1 FC ([2]; Table S3, THP-1, 12 h): 0,67 fold; SOCS1 FC ([2]; Table S3, THP-1, 12 h): 0,37 fold; SOCS3 FC ([2]; Table S3, THP-1, 12 h): 1,14 fold; SOD1 FC ([2]; Table S3, THP-1, 12 h): 2,71 fold; SOD2 FC ([2]; Table S3, THP-1, 12 h): 0,36 fold; STAT1 FC ([2]; Table S3, THP-1, 12 h): 1,02 fold; TBK1 FC ([2]; Table S3, THP-1, 12 h): 1,06 fold; TLR4 FC ([2]; Table S3, THP-1, 12 h): 0,26 fold; TNFRSF1B FC ([2]; Table S3, THP-1, 12 h): 0,27 fold; TRAP1 FC ([2]; Table S3, THP-1, 12 h): 0,64 fold; cGAS FC ([2]; Table S3, THP-1, 12 h): 1,19 fold; number of upregulated genes not shared by the other groups ([2]; WT, 12 h, CDDO-Me 0.1 µM): > 500 genes; Average FC of upregulated Nrf2-dependent genes [2, 3]: 5.0 fold; number of upregulated genes (FC >2.0, p-adj <0.05) [2, 3]: 1091 genes |
| O=C(COc1ccccc1)NC1CCCCC1 [Compound 1] |  |  |  |  |  |  |  |  |  |  |  |  |  |  |  |  |  |  |  |  | Kd (Keap1 Kelch domain; KD (SPR, printed in Figure 1b), Rmax fixed to theoretical maximum (15 RU)): 686 ± 7 µM; Kd (Keap1 Kelch domain; Kd (SPR), estimated with Rmax fixed to theoretical maximum): ~700 µM; ligand efficiency (LE) (Keap1 Kelch domain; from SPR Kd): 0.25; activity in FP competition assay (human Keap1 Kelch): inactive |
| COC(=O)/C=C/C(=O)OC [DMF, dimethyl fumarate] | 1,00 fold | 0,18 fold | 0,44 fold | 1,46 fold | 1,16 fold | 0,59 fold | 1,09 fold | 0,95 fold | 0,80 fold | 0,93 fold | 0,78 fold | 2,70 fold | 1,15 fold | 4,44 fold | 7,56 fold | 1,70 fold | 0,85 fold | 1,88 fold | 1,19 fold | 0,31 fold | number of up- or downregulated genes in Nrf2 KO cells [1]: 3709 genes; cell viability (THP1 cells): contrasted; NOXA1 FC ([2]; Table S3, THP-1, 12 h): 0,30 fold; SOCS1 FC ([2]; Table S3, THP-1, 12 h): 5,21 fold; SOCS3 FC ([2]; Table S3, THP-1, 12 h): 18,01 fold; SOD1 FC ([2]; Table S3, THP-1, 12 h): 1,73 fold; SOD2 FC ([2]; Table S3, THP-1, 12 h): 0,19 fold; STAT1 FC ([2]; Table S3, THP-1, 12 h): 0,62 fold; TBK1 FC ([2]; Table S3, THP-1, 12 h): 1,19 fold; TLR4 FC ([2]; Table S3, THP-1, 12 h): 0,84 fold; TNFRSF1B FC ([2]; Table S3, THP-1, 12 h): 1,26 fold; TRAP1 FC ([2]; Table S3, THP-1, 12 h): 0,85 fold; cGAS FC ([2]; Table S3, THP-1, 12 h): 1,04 fold; number of upregulated genes not shared by the other groups ([2]; WT, 12 h, CDDO-Me 0.1 µM): > 500 genes; Average FC of upregulated Nrf2-dependent genes [2, 3]: 4.2 fold; number of upregulated genes (FC >2.0, p-adj <0.05) [2, 3]: 845 genes |
| COc1cc([C@@H](CC(=O)O)c2ccc(C)c(CN3C[C@@H](C)Oc4ccccc4S3(=O)=O)c2)cc2nnn(C)c12 [KI-696] | 26,39 fold | 0,94 fold | 1,59 fold | 0,61 fold | 0,77 fold | 1,38 fold | 1,74 fold | 0,90 fold | 1,02 fold | 0,70 fold | 0,91 fold | 0,85 fold | 1,43 fold | 2,64 fold | 3,38 fold | 0,82 fold | 1,21 fold | 0,60 fold | 0,78 fold | 0,57 fold | number of up- or downregulated genes in Nrf2 KO cells [1]: none; CYP1B1 FC ([2]; Table S3, THP-1, 12 h): 0,76 fold; NOXA1 FC ([2]; Table S3, THP-1, 12 h): 0,92 fold; SOCS1 FC ([2]; Table S3, THP-1, 12 h): 2,43 fold; SOCS3 FC ([2]; Table S3, THP-1, 12 h): 1,66 fold; SOD1 FC ([2]; Table S3, THP-1, 12 h): 1,75 fold; SOD2 FC ([2]; Table S3, THP-1, 12 h): 0,87 fold; STAT1 FC ([2]; Table S3, THP-1, 12 h): 0,69 fold; TBK1 FC ([2]; Table S3, THP-1, 12 h): 1,56 fold; TLR4 FC ([2]; Table S3, THP-1, 12 h): 0,32 fold; TNFRSF1B FC ([2]; Table S3, THP-1, 12 h): 1,13 fold; TRAP1 FC ([2]; Table S3, THP-1, 12 h): 1,02 fold; cGAS FC ([2]; Table S3, THP-1, 12 h): 1,08 fold; Average FC of upregulated Nrf2-dependent genes [2, 3]: 2.4 fold; number of upregulated genes (FC >2.0, p-adj <0.05) [2, 3]: 88 genes; GCLM fold change vs vehicle [2, 4]: 2.5 fold; GSR fold change vs vehicle [2, 4]: 2.4 fold; HMOX1 fold change vs vehicle [2, 4]: 2.6 fold; NQO1 fold change vs vehicle [2, 4]: 2.3 fold; TXNRD1 fold change vs vehicle [2, 4]: 2.3 fold |
| C[S+]([O-])CCCCN=C=S (stereo not shown) [SFN, sulforaphane] | 34,78 fold | 0,45 fold | 0,98 fold | 0,55 fold | 1,38 fold | 0,53 fold | 0,94 fold | 0,88 fold | 0,85 fold | 0,63 fold | 0,58 fold | 0,36 fold | 1,48 fold | 7,81 fold | 17,37 fold | 0,32 fold | 0,70 fold | 0,29 fold | 0,44 fold | 0,16 fold | cell viability (THP1 cells): contrasted; CYP1B1 FC [2]: 1,15 fold; NOXA1 FC ([2]; Table S3, THP-1, 12 h): 0,45 fold; SOCS1 FC ([2]; Table S3, THP-1, 12 h): 2,19 fold; SOCS3 FC ([2]; Table S3, THP-1, 12 h): 0,99 fold; SOD1 FC ([2]; Table S3, THP-1, 12 h): 2,16 fold; SOD2 FC ([2]; Table S3, THP-1, 12 h): 0,40 fold; STAT1 FC ([2]; Table S3, THP-1, 12 h): 0,66 fold; TBK1 FC ([2]; Table S3, THP-1, 12 h): 0,95 fold; TLR4 FC ([2]; Table S3, THP-1, 12 h): 0,43 fold; TNFRSF1B FC ([2]; Table S3, THP-1, 12 h): 1,19 fold; TRAP1 FC ([2]; Table S3, THP-1, 12 h): 0,74 fold; cGAS FC ([2]; Table S3, THP-1, 12 h): 1,42 fold; Average FC of upregulated Nrf2-dependent genes [2, 3]: 4.1 fold; number of upregulated genes (FC >2.0, p-adj <0.05) [2, 3]: 676 genes; GCLM fold change vs vehicle [2, 4]: 4.7 fold; GSR fold change vs vehicle [2, 4]: 3.4 fold; SRXN1 fold change vs vehicle [2, 4]: 4.5 fold; TXNRD1 fold change vs vehicle [2, 4]: 3.9 fold |
